# Measurements: US20110124617A1, “Combination Therapy for BreastCancer Comprising an Antiestrogenic Agent” (priority 2008, published 2011)
# Columns and labels:
# [1] = tested on: hot flashes; assay: alleviation of hot flashes in a postmenopausal breast cancer patient treated with tamoxifen citrate; assay type: in vivo, human; conditions: postmenopausal patient on tamoxifen citrate (20 mg tamoxifen free base)
# Description: A postmenopausal patient is being treated in the adjuvant setting for breast cancer with the SERM tamoxifen citrate (dosage of 20 mg tamoxifen free base). They are experiencing hot flashes as a result of their treatment.
# [2] = tested on: rat uterus; conditions: cited from earlier work; for estrogenic stimulation on the rat uterus: compound alone
Structure (SMILES),alleviation of hot flashes ([1]; 20 mg once daily),alleviation of hot flashes ([1]; dosage adjusted to 50 mg),estrogenic stimulation on the rat uterus [2],antagonism of the estrogenic effect of estradiol on the uterus ([2]; with estradiol)
CCNCCc1ccc(CN(CC)c2cc(OC)ccc2[C@@H]2CCc3cc(O)ccc3C2)cc1 [compound of formula I],partial alleviation of their symptoms,almost complete alleviation of their hot flushes,no estrogenic stimulation,could antagonize the estrogenic effect of estradiol on the uterus and bring it back to control levels
"O=C(c1ccc(OCCN2CCCCC2)cc1)c1c(-c2ccc(O)cc2)sc2cc(O)ccc12 [raloxifene, reference compound]",,,did stimulate the uterus,
"CC/C(=C(\c1ccccc1)c1ccc(OCCN(C)C)cc1)c1ccccc1 [tamoxifen, reference compound]",,,did stimulate the uterus,
